Laboratory results published in PubChem BioAssay AID248 (DTP/NCI, 2004).
Where “and” joins values, the source holds several entries; their conditions need not be identical. Equal values may be shown once. Toxic doses and inconclusive results are not listed. Cut-off read from the data, not from the text of the source: active = T/C of 150% or more; inactive = T/C below 125%.

Tested on: L1210 leukemia ip in BDF1 mice, survival T/C
Test: NCI In Vivo Anticancer Drug Screen. Data for tumor model L1210 Leukemia (intraperitoneal) in B6D2F1 (BDF1) mice
Settings: endpoint: mean survival time, higher = longer survival
How it was run: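 Read-out is survival time, reported as the treated-group measurement over the vehicle-control measurement.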

[1] = dose: 100.0 mg/kg/injection, schedule: Q01DX009 (ip), vehicle: Klucel (hydroxypropylcellulose) (HPC)
[2] = dose: 200.0 mg/kg/injection, schedule: Q01DX009 (ip), vehicle: Klucel (hydroxypropylcellulose) (HPC)
[3] = dose: 400.0 mg/kg/injection, schedule: Q01DX009 (ip), vehicle: Klucel (hydroxypropylcellulose) (HPC)
[4] = dose: 100.0 mg/kg/injection, schedule: Q04DX002 (ip), vehicle: saline with Tween-80
[5] = dose: 200.0 mg/kg/injection, schedule: Q04DX002 (ip), vehicle: saline with Tween-80
[6] = dose: 100.0 mg/kg/injection, schedule: Q04DX003 (ip), vehicle: Klucel (hydroxypropylcellulose) (HPC)
[7] = dose: 200.0 mg/kg/injection, schedule: Q04DX003 (ip), vehicle: Klucel (hydroxypropylcellulose) (HPC)
[8] = dose: 400.0 mg/kg/injection, schedule: Q04DX003 (ip), vehicle: Klucel (hydroxypropylcellulose) (HPC)
[9] = dose: 100.0 mg/kg/injection, schedule: Q04DX002 (ip), vehicle: Klucel (hydroxypropylcellulose) (HPC)
[10] = dose: 200.0 mg/kg/injection, schedule: Q04DX002 (ip), vehicle: Klucel (hydroxypropylcellulose) (HPC)
[11] = dose: 400.0 mg/kg/injection, schedule: Q04DX002 (ip), vehicle: Klucel (hydroxypropylcellulose) (HPC)
[12] = dose: 100.0 mg/kg/injection, schedule: Q04DX002 (ip), vehicle: saline
[13] = dose: 200.0 mg/kg/injection, schedule: Q04DX002 (ip), vehicle: saline
[14] = dose: 400.0 mg/kg/injection, schedule: Q04DX002 (ip), vehicle: saline
[15] = dose: 100.0 mg/kg/injection, schedule: Q01DX001 (ip), vehicle: saline
[16] = dose: 200.0 mg/kg/injection, schedule: Q01DX001 (ip), vehicle: saline
[17] = dose: 100.0 mg/kg/injection, schedule: Q01DX009 (ip), vehicle: saline
[18] = dose: 200.0 mg/kg/injection, schedule: Q01DX009 (ip), vehicle: saline
[19] = dose: 400.0 mg/kg/injection, schedule: Q01DX001 (ip), vehicle: saline
[20] = dose: 75.0 mg/kg/injection, schedule: Q01DX001 (ip), vehicle: saline
[21] = dose: 100.0 mg/kg/injection, schedule: Q01DX009 (ip), vehicle: saline with Tween-80
[22] = dose: 200.0 mg/kg/injection, schedule: Q01DX009 (ip), vehicle: saline with Tween-80
[23] = dose: 100.0 mg/kg/injection, schedule: Q04DX003 (ip), vehicle: saline with Tween-80
[24] = dose: 200.0 mg/kg/injection, schedule: Q04DX003 (ip), vehicle: saline with Tween-80
[25] = dose: 400.0 mg/kg/injection, schedule: Q04DX003 (ip), vehicle: saline with Tween-80

Measured: T/C

CC1CCCCN1C(=O)Nc1cccc(F)c1 (centres undefined)
inactive: [1] 104 % of control | [2] 102 % of control | [3] 111 % of control

COc1cc2c(c(O)c1OCC=C(C)C)c(=O)c1ccccc1n2C
inactive: dose: 100.0 mg/kg/injection, schedule: Q01DX001 (ip), vehicle: carboxymethylcellulose (CMC) 93 % of control | dose: 200.0 mg/kg/injection, schedule: Q01DX001 (ip), vehicle: carboxymethylcellulose (CMC) 95 % of control | dose: 400.0 mg/kg/injection, schedule: Q01DX001 (ip), vehicle: carboxymethylcellulose (CMC) 88 % of control

O=C(O)C1=CCCc2ccc3ccccc3c21
inactive: dose: 75.0 mg/kg/injection, schedule: Q04DX003 (ip), vehicle: saline 100 % of control | [1] 96 % of control | dose: 150.0 mg/kg/injection, schedule: Q04DX003 (ip), vehicle: saline 100 % of control | [2] 102 % of control | dose: 300.0 mg/kg/injection, schedule: Q04DX003 (ip), vehicle: saline 97 % of control

CC(C)CCc1c(N)nc(NCCCc2ccccc2)nc1N
inactive: dose: 100.0 mg/kg/injection, schedule: Q01DX001 (ip), vehicle: Klucel (hydroxypropylcellulose) (HPC) 91 % of control | dose: 200.0 mg/kg/injection, schedule: Q01DX001 (ip), vehicle: Klucel (hydroxypropylcellulose) (HPC) 103 % of control

CC1CC(NC(=S)NC(=O)c2ccccc2Cl)CC(C)(C)C1 (centres undefined)
inactive: [4] 98 % of control | [5] 113 % of control | dose: 400.0 mg/kg/injection, schedule: Q04DX002 (ip), vehicle: saline with Tween-80 102 % of control

O=C(O)/C=C/C(=O)Nc1cc(Cl)cc2c1-c1c(Cl)cc(Cl)cc1C2O (centres undefined)
inactive: [6] 98 % of control | [7] 92 % of control | [8] 108 % of control

COc1ccc(OC)c(NC(=O)Nc2ccc(I)cc2)c1
inactive: [9] 96 % of control | [10] 96 % of control | [11] 107 % of control

Cc1ccc([N+](=O)[O-])cc1NC(=O)COc1ccc(Cl)cc1Cl
inactive: [1] 96 % of control | [6] 95 % of control | [2] 91 % of control | [7] 102 % of control | [3] 94 % of control | [8] 91 % of control

NC1CC(=O)NC1=O (centres undefined)
inactive: [12] 93 % of control | [13] 100 % of control | [14] 100 % of control

CCOc1ccc(NC(=O)OCCN2CCN(CCc3ccccc3)C(C)C2)cc1 (centres undefined)
inactive: [15] 98 % of control | [16] 95 % of control

O=C(O)c1ccc(Br)c([N+](=O)[O-])c1
inactive: [1] 95 % of control | [2] 94 % of control | [3] 92 % of control

Cc1ccc(S(=O)(=O)OCC2C3C=CC(c4ccccc43)C2COS(=O)(=O)c2ccc(C)cc2)cc1 (centres undefined)
inactive: dose: 75.0 mg/kg/injection, schedule: Q01DX009 (ip), vehicle: saline with Tween-80 96 % of control | dose: 150.0 mg/kg/injection, schedule: Q01DX009 (ip), vehicle: saline with Tween-80 91 % of control | dose: 300.0 mg/kg/injection, schedule: Q01DX009 (ip), vehicle: saline with Tween-80 90 % of control

NC(=O)COc1ncc(Cl)cc1Cl
inactive: [9] 96 % of control | [10] 101 % of control | [11] 104 % of control

O=C1CC2CC1C(C(=O)O)C2C(=O)O (centres undefined)
inactive: [15] 98 % of control | [17] 96 % of control | [16] 96 % of control | [18] 96 % of control | [19] 96 % of control and 98 % of control | dose: 400.0 mg/kg/injection, schedule: Q01DX009 (ip), vehicle: saline 98 % of control

CC(=O)c1cccc(N2C(=O)CC(=P(c3ccccc3)(c3ccccc3)c3ccccc3)C2=O)c1
inactive: [20] 93 % of control

C=CCCCCC/C=C/CCCCCC
inactive: [21] 89 % of control | [22] 92 % of control

Cc1cc(=O)n2c(n1)Nc1ccccc1C2
inactive: [15] 87 % of control | [16] 93 % of control | [19] 87 % of control

CCN(CC)Cc1ccccc1COC(=O)c1ccc(Br)cc1
inactive: [9] 101 % of control | [10] 108 % of control | [11] 101 % of control

O=C1/C(=C/c2ccco2)CC2CCCCC12 (centres undefined)
inactive: dose: 50.0 mg/kg/injection, schedule: Q01DX009 (ip), vehicle: saline 95 % of control | [17] 102 % of control | dose: 100.0 mg/kg/injection, schedule: Q04DX003 (ip), vehicle: saline 88 % of control | [18] 90 % of control | dose: 200.0 mg/kg/injection, schedule: Q04DX003 (ip), vehicle: saline 102 % of control

Clc1ccc(C2=Nc3c(Cl)ncnc3SC2)cc1
inactive: dose: 100.0 mg/kg/injection, schedule: Q01DX001 (ip), vehicle: saline with Tween-80 106 % of control | [21] 94 % of control | dose: 200.0 mg/kg/injection, schedule: Q01DX001 (ip), vehicle: saline with Tween-80 101 % of control | [22] 99 % of control | dose: 400.0 mg/kg/injection, schedule: Q01DX001 (ip), vehicle: saline with Tween-80 98 % of control | dose: 400.0 mg/kg/injection, schedule: Q01DX009 (ip), vehicle: saline with Tween-80 94 % of control

CN(C)C(=S)Oc1ccccc1[N+](=O)[O-]
inactive: [23] 100 % of control | [24] 103 % of control | [25] 114 % of control

Cc1ccc(NC(=S)NC(=O)COc2ccccc2)cc1C
inactive: dose: 50.0 mg/kg/injection, schedule: Q01DX001 (ip), vehicle: other 92 % of control | dose: 50.0 mg/kg/injection, schedule: Q01DX009 (ip), vehicle: other 96 % of control and 108 % of control | dose: 50.0 mg/kg/injection, schedule: Q04DX002 (ip), vehicle: other 101 % of control and 116 % of control | dose: 50.0 mg/kg/injection, schedule: Q04DX003 (ip), vehicle: other 95 % of control | dose: 100.0 mg/kg/injection, schedule: Q01DX001 (ip), vehicle: other 97 % of control | dose: 100.0 mg/kg/injection, schedule: Q01DX009 (ip), vehicle: other 100 % of control and 86 % of control | dose: 100.0 mg/kg/injection, schedule: Q04DX003 (ip), vehicle: other 92 % of control | dose: 200.0 mg/kg/injection, schedule: Q01DX001 (ip), vehicle: other 101 % of control | dose: 200.0 mg/kg/injection, schedule: Q01DX009 (ip), vehicle: other 96 % of control and 90 % of control

CCCCOB(OCCCC)C(C)C(C#N)C#N (centres undefined)
inactive: dose: 100.0 mg/kg/injection, schedule: Q01DX009 (ip), vehicle: saline sonified 94 % of control | [23] 110 % of control | dose: 200.0 mg/kg/injection, schedule: Q01DX009 (ip), vehicle: saline sonified 92 % of control | [24] 98 % of control | dose: 400.0 mg/kg/injection, schedule: Q01DX009 (ip), vehicle: saline sonified 89 % of control | [25] 93 % of control

CC(C)c1ccc(C(O)C2CC2)cc1 (centres undefined)
inactive: [23] 94 % of control

O=[N+]([O-])c1cc(/C=N/N=C2c3ccccc3-c3ccccc32)ccc1Cl
inactive: dose: 75.0 mg/kg/injection, schedule: Q01DX001 (ip), vehicle: other 86 % of control | dose: 300.0 mg/kg/injection, schedule: Q01DX001 (ip), vehicle: other 91 % of control

CCCCCCCCCCCCCCCC(=O)Nc1cccc(C)c1C
inactive: [4] 93 % of control | [5] 86 % of control

O=C(NCCO)Nc1ccccc1Cl
inactive: [12] 103 % of control | [13] 100 % of control | [14] 100 % of control

NC(CS(N)(=O)=O)C(=O)O (centres undefined)
inactive: [20] 97 % of control | dose: 150.0 mg/kg/injection, schedule: Q01DX001 (ip), vehicle: saline 103 % of control | dose: 300.0 mg/kg/injection, schedule: Q01DX001 (ip), vehicle: saline 102 % of control
